From PubChem BioAssay (NCI)
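Each compound was tested at five concentrations against cells in 96-well plates for 48 hours. GI50 is the concentration that inhibits growth by half. TGI is the concentration that stops growth completely.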

Tests used:
Experiment in all cases: NCI tumour cell line growth inhibition, 48 h
HCC-2998 colon = test system: HCC-2998 colon
UO-31 renal = test system: UO-31 renal
A498 renal = test system: A498 renal
NCI/ADR-RES ovarian = test system: NCI/ADR-RES ovarian
SN12C renal = test system: SN12C renal
SNB-75 CNS = test system: SNB-75 CNS
U251 CNS = test system: U251 CNS
HT29 colon = test system: HT29 colon
KM12 colon = test system: KM12 colon
OVCAR-4 ovarian = test system: OVCAR-4 ovarian

Structure (SMILES) | GI50 (HCC-2998 colon) | TGI (HCC-2998 colon) | GI50 (UO-31 renal) | TGI (UO-31 renal) | GI50 (A498 renal) | TGI (A498 renal) | GI50 (NCI/ADR-RES ovarian) | TGI (NCI/ADR-RES ovarian) | GI50 (SN12C renal) | TGI (SN12C renal) | GI50 (SNB-75 CNS) | TGI (SNB-75 CNS) | GI50 (U251 CNS) | TGI (U251 CNS) | GI50 (HT29 colon) | TGI (HT29 colon) | GI50 (KM12 colon) | TGI (KM12 colon) | GI50 (OVCAR-4 ovarian) | TGI (OVCAR-4 ovarian)
COc1ccc(C(=O)C(CN(C)C)c2ccccc2)cc1 (stereo not given) | 2.28 µM | 3.94 µM | 1.43 µM | 2.74 µM | 8.11 µM | 20.5 µM | 2.7 µM | 6.97 µM | 3.56 µM | 12.1 µM | 12.8 µM | 27.3 µM | 4.39 µM | 14.8 µM | 3.8 µM | 21.4 µM | 3.98 µM | 13.6 µM | 5.34 µM | > 100 µM
COc1cc(C2CC(c3cc(Cl)c(C)cc3O)=NN2c2ccc(S(N)(=O)=O)cc2)cc(OC)c1OC (stereo not given) | 1.84 µM | 3.75 µM | 2.19 µM | 28.9 µM | 4.15 µM | 15.3 µM | 2.58 µM | 7.53 µM | 2.97 µM | 10.3 µM | 2.45 µM | 28.3 µM | 2.84 µM | 8.89 µM | 1.92 µM | 4.28 µM | 2.28 µM | 5.1 µM | 3.47 µM | > 100 µM
O=C(O)c1ccccc1/C=C1/Nc2ccccc2C1=O | – | > 100 µM | – | > 100 µM | – | > 100 µM | – | > 100 µM | – | > 100 µM | – | > 100 µM | – | > 100 µM | – | > 100 µM | – | > 100 µM | – | > 100 µM
